From patent US9615577B2, “Herbicidally active cyclic dione compounds, or derivatives therefor, substituted by a phenyl which has an alkynyl-containing substituent” (Syngenta Limited, priority 2012, dated 2017)

Experiments:
Format in all cases: in vivo
[1] = tested on: Alopecurus myosuroides (ALOMY); experiment: Biological Example 2 comparative herbicidal data, post-emergence glasshouse screen; conditions: 312 h, read-out: Post-emergence herbicidal activities (percentage phytotoxicity) ALOMY; for pest or weed control at 8 g/ha: 8 g/ha application rate; for pest or weed control at 30 g/ha: 30 g/ha application rate
Protocol: (§1) Seeds of a variety of test species were sown in standard soil in pots. After cultivation for one day (pre-emergence) or after 8 days cultivation (post-emergence) under controlled conditions in a glasshouse (at 24/16° C., day/night; 14 hours light; 65% humidity), the plants were sprayed with an aqueous spray solution derived from the formulation of the technical active ingredient in acetone/I water (50:50) solution containing 0.5% Tween 20 (polyoxyethelyene sorbitan monolaurate, CAS RN 9005-64-5). The test plants were then grown in a glasshouse under controlled conditions in a glasshouse (at 24/16° C., day/night; 14 hours light; 65% humidity) and watered twice daily. After 13 days for pre and post-emergence, the test was evaluated visually for percentage phytotoxicity to the plant (where 100=total damage to plant; 0=no damage to plant).
(§2) Comparative herbicidal data is given below for certain exemplified compounds with 4-(prop-1-ynyl)-2,6-dimethylphenyl or 4-(chloroethynyl)-2,6-dimethylphenyl headgroups, compared to the corresponding compounds with either 4-ethynyl-2,6-dimethylphenyl or 2,4,6-trimethylphenyl headgroups, as follows. Comparative herbicidal data is also given below for certain exemplified compounds with 4-(prop-1-ynyl)-2-chloro-6-methoxyphenyl headgroups, compared to the corresponding compounds with 4-ethynyl-2-chloro-6-methoxyphenyl or 4-(but-1-ynyl)-2-chloro-6-methoxyphenyl or 4-methyl-2-chloro-6-methoxyphenyl or 2-chloro-6-methoxyphenyl headgroups, as follows.
(§3) Except where specified otherwise, the glasshouse screen for herbicidal activity is substantially the same as that presented in Biological Example 1A (Test 1A) hereinabove. The weed abbreviations are as defined in Biological Example 1A.

[2] = tested on: Setaria faberi (SETFA); experiment: as above; conditions: 312 h, read-out: Post-emergence herbicidal activities (percentage phytotoxicity) SETFA; for pest or weed control at 8 g/ha: 8 g/ha application rate; for pest or weed control at 30 g/ha: 30 g/ha application rate
Protocol: as §1, §2, §3

[3] = tested on: Echinochloa crus-galli (ECHCG); experiment: as above; conditions: 312 h, read-out: Post-emergence herbicidal activities (percentage phytotoxicity) ECHCG; for pest or weed control at 8 g/ha: 8 g/ha application rate; for pest or weed control at 30 g/ha: 30 g/ha application rate
Protocol: as §1, §2, §3

[4] = tested on: Abutilon theophasti Medik. (ABUTH); experiment: as above; conditions: read-out: Post-emergence herbicidal activities (percentage phytotoxicity) ABUTH; for pest or weed control at 8 g/ha: 8 g/ha application rate; for pest or weed control at 30 g/ha: 30 g/ha application rate
[5] = tested on: Amaranthus retroflexus (AMARE); experiment: Test 1A glasshouse assay for herbicidal activity, pre-emergence; conditions: 312 h, 250 g/ha, evaluated after 13 days, read-out: percentage phytotoxicity AMARE
Protocol: as §1
(§4) Alopecurus myosuroides (ALOMY), Setaria faberi (SETFA), Echinochloa crus-galli (ECHCG), Solanum nigrum (SOLNI), Amaranthus retroflexus (AMARE), Ipomoea hederacea (IPOHE), and Abutilon theophasti Medik. (ABUTH, common English name “velvetleaf”). Of these, Alopecurus myosuroides (ALOMY), Setaria faberi (SETFA), and Echinochloa crus-galli (ECHCG) are grassy monocotyledonous weeds.

[6] = tested on: Alopecurus myosuroides (ALOMY); experiment: as above; conditions: 312 h, 250 g/ha, evaluated after 13 days, read-out: percentage phytotoxicity ALOMY
Protocol: as §1, §4

[7] = tested on: Abutilon theophasti Medik. (ABUTH); experiment: as above; conditions: 312 h, 250 g/ha, evaluated after 13 days, read-out: percentage phytotoxicity ABUTH
Protocol: as §1, §4

[8] = tested on: Setaria faberi (SETFA); experiment: as above; conditions: 312 h, 250 g/ha, evaluated after 13 days, read-out: percentage phytotoxicity SETFA
Protocol: as §1, §4

[9] = tested on: Echinochloa crus-galli (ECHCG); experiment: as above; conditions: 312 h, 250 g/ha, evaluated after 13 days, read-out: percentage phytotoxicity ECHCG
Protocol: as §1, §4

[10] = tested on: Amaranthus retroflexus (AMARE); experiment: Test 1A glasshouse assay for herbicidal activity, post-emergence; conditions: 312 h, evaluated after 13 days, read-out: percentage phytotoxicity AMARE
Protocol: as §1, §4

[11] = tested on: Alopecurus myosuroides (ALOMY); experiment: as above; conditions: 312 h, evaluated after 13 days, read-out: percentage phytotoxicity ALOMY
Protocol: as §1, §4

[12] = tested on: Abutilon theophasti Medik. (ABUTH); experiment: as above; conditions: 312 h, evaluated after 13 days, read-out: percentage phytotoxicity ABUTH
Protocol: as §1, §4

[13] = tested on: Setaria faberi (SETFA); experiment: as above; conditions: 312 h, evaluated after 13 days, read-out: percentage phytotoxicity SETFA
Protocol: as §1, §4

[14] = tested on: Echinochloa crus-galli (ECHCG); experiment: as above; conditions: 312 h, evaluated after 13 days, read-out: percentage phytotoxicity ECHCG
Protocol: as §1, §4

[15] = tested on: Amarantus retroflexus (AMARE); experiment: Biological Example 2 comparative herbicidal data, post-emergence glasshouse screen; conditions: Amaranthus retroflexus, read-out: Post-emergence herbicidal activities (percentage phytotoxicity) AMARE; for pest or weed control at 8 g/ha: 8 g/ha application rate; for pest or weed control at 30 g/ha: 30 g/ha application rate

Row | SMILES | pest or weed control at 8 g/ha [1] [%] | pest or weed control at 30 g/ha [1] [%] | pest or weed control at 8 g/ha [2] [%] | pest or weed control at 30 g/ha [2] [%] | pest or weed control at 8 g/ha [3] [%] | pest or weed control at 30 g/ha [3] [%] | pest or weed control at 8 g/ha [4] [%] | pest or weed control at 30 g/ha [4] [%] | pest or weed control at 250 g/ha [5] [%] | pest or weed control at 250 g/ha [6] [%] | pest or weed control at 250 g/ha [7] [%] | pest or weed control at 250 g/ha [8] [%] | pest or weed control at 250 g/ha [9] [%] | pest or weed control at 250 g/ha [10] [%] | pest or weed control at 250 g/ha [11] [%] | pest or weed control at 250 g/ha [12] [%] | pest or weed control at 250 g/ha [13] [%] | pest or weed control at 250 g/ha [14] [%] | pest or weed control at 8 g/ha [15] [%] | pest or weed control at 30 g/ha [15] [%] | also measured
1 | CC#Cc1cc(Cl)c(C2C(=O)CCCC2=O)c(OC)c1 [Compound A-22, 2-(2-Chloro-6-methoxy-4-prop-1-ynyl-phenyl)cyclohexane-1,3-dione] | 10 | 60 | 70 | 80 | 80 | 90 | 0 | 10 | 70 | 90 | 60 | 100 | 100 | 0 | 90 | 70 | 100 | 100 | 0 | 20 | pest or weed control at 30 g/ha [10]: 20%; pest or weed control at 30 g/ha [11]: 60%; pest or weed control at 30 g/ha [12]: 10%; pest or weed control at 30 g/ha [13]: 80%; pest or weed control at 30 g/ha [14]: 90%
2 | CC#Cc1cc(C)c(C2C(=O)CC(CC(C)SC)CC2=O)c(C)c1 (stereo not drawn) [Compound A-24, 2-(2,6-Dimethyl-4-prop-1-ynyl-phenyl)-5-(2-methylsulfanylpropyl)cyclohexane-1,3-dione] |  | 90 |  | 100 |  | 100 |  | 0 | 80 | 90 | 20 | 100 | 100 | 60 | 100 | 60 | 100 | 100 |  | 0 | pest or weed control at 30 g/ha [10]: 0%; pest or weed control at 30 g/ha [11]: 90%; pest or weed control at 30 g/ha [12]: 0%; pest or weed control at 30 g/ha [13]: 100%; pest or weed control at 30 g/ha [14]: 100%
3 | C#Cc1cc(Cl)c(C2C(=O)CCCC2=O)c(OC)c1 [Compound B-2, 2-(2-Chloro-4-ethynyl-6-methoxy-phenyl)-3-hydroxy-cyclohex-2-en-1-one] | 0 | 0 | 10 | 70 | 0 | 80 | 0 | 0 | 10 | 60 | 10 | 90 | 90 | 0 | 70 | 0 | 90 | 100 | 0 | 0 | 
4 | C#Cc1cc(Cl)c(C2C(=O)C3CCC(C3)C2=O)c(OC)c1 (stereo not drawn) [Compound B-3, 3-(2-Chloro-4-ethynyl-6-methoxy-phenyl)bicyclo[3.2.1]octane-2,4-dione] | 0 | 30 | 20 |  | 20 | 70 | 0 | 0 | 90 | 80 | 100 | 100 | 90 | 0 | 80 | 0 | 90 | 100 | 0 | 0 | 
